# Experiments:
# Plasmodium falciparum [1] = experiment: Antimalarial activity against artemisinin-sensitive Plasmodium falciparum F32-TEM by SYBR green dye based fluorescence assay; type: functional, organism-based
# Plasmodium falciparum [2] = experiment: Antimalarial activity against ring stage artemisinin-sensitive Plasmodium falciparum F32-TEM assessed as time taken for recrudescence by measuring parasitemia at 7 uM after 48 hrs; type: functional
# Plasmodium falciparum [3] = experiment: Antimalarial activity against ring stage artemisinin-resistant Plasmodium falciparum F32-ART5 assessed as time taken for recrudescence by measuring parasitemia at 7 uM after 48 hrs; type: functional
# [4] = Cytotoxicity against African green monkey Vero cells assessed as inhibition of cell proliferation; type: cell-based; settings: chlorocebus sabaeus
# Plasmodium falciparum [5] = experiment: Antimalarial activity against Plasmodium falciparum assessed as difference of time taken for recrudescence Plasmodium falciparum […] between ring stage artemisinin-sensitive Plasmodium falciparum F32-TEM measured at 7 uM after 48 hrs; type: functional
# [6] = Selective index, ratio of CC50 for African green monkey Vero cells to IC50 for plasmodium falciparum
# Plasmodium falciparum [7] = experiment: Antimalarial activity against ring stage artemisinin-sensitive Plasmodium falciparum F32-TEM assessed as time taken for recrudescence by measuring parasitemia at 1 uM after 48 hrs; type: functional
# Plasmodium falciparum [8] = experiment: Antimalarial activity against Plasmodium falciparum assessed as difference of time taken for recrudescence Plasmodium falciparum F32-ART5 between ring stage artemisinin-sensitive Plasmodium falciparum F32-TEM measured at 1 uM after 48 hrs
# Plasmodium falciparum [9] = experiment: Antimalarial activity against ring stage artemisinin-resistant Plasmodium falciparum F32-ART5 assessed as time taken for recrudescence by measuring parasitemia pretreated with dihydroartemisinin for 6 hrs followed by treated at 7 uM for 48 hrs by Quiescent-stage Survival Assay; type: functional
# Plasmodium falciparum [10] = experiment: Antimalarial activity against ring stage artemisinin-sensitive Plasmodium falciparum F32-TEM assessed as time taken for recrudescence by measuring parasitemia at 20 uM after 48 hrs; type: functional
# Plasmodium falciparum [11] = experiment: Antimalarial activity against ring stage artemisinin-resistant Plasmodium falciparum F32-ART5 assessed as time taken for recrudescence by measuring parasitemia at 20 uM after 48 hrs; type: functional
# Plasmodium falciparum [12] = experiment: Antimalarial activity against Plasmodium falciparum assessed as difference of time taken for recrudescence Plasmodium falciparum […] between ring stage artemisinin-sensitive Plasmodium falciparum F32-TEM measured at 20 uM after 48 hrs; type: functional
# Plasmodium falciparum [13] = experiment: Antimalarial activity against ring stage artemisinin-sensitive Plasmodium falciparum F32-TEM assessed as time taken for recrudescence by measuring parasitemia at 18 uM after 48 hrs; type: functional
# Plasmodium falciparum [14] = experiment: Antimalarial activity against ring stage artemisinin-resistant Plasmodium falciparum F32-ART5 assessed as time taken for recrudescence by measuring parasitemia at 18 uM after 48 hrs; type: functional
# Plasmodium falciparum [15] = experiment: Antimalarial activity against Plasmodium falciparum assessed as difference of time taken for recrudescence Plasmodium falciparum […] between ring stage artemisinin-sensitive Plasmodium falciparum F32-TEM measured at 18 uM after 48 hrs; type: functional
# Plasmodium falciparum [16] = experiment: Antimalarial activity against ring stage artemisinin-resistant Plasmodium falciparum F32-ART5 assessed as time taken for recrudescence by measuring parasitemia at 1 uM after 48 hrs; type: functional
# Plasmodium falciparum [17] = experiment: Antimalarial activity against ring stage artemisinin-resistant Plasmodium falciparum F32-ART5 assessed as time taken for recrudescence by measuring parasitemia pretreated with dihydroartemisinin for 6 hrs followed by treated at 200 nM for 48 hrs by Quiescent-stage Survival Assay; type: functional
SMILES,IC50 (Plasmodium falciparum [1]) [nM],Time (Plasmodium falciparum [2]) [days],Time (Plasmodium falciparum [3]) [days],CC50 [4] [nM],Time (Plasmodium falciparum [5]),Ratio CC50/IC50 [6],Time (Plasmodium falciparum [7]) [days],Time (Plasmodium falciparum [8]) [days],Time (Plasmodium falciparum [9]) [days],other results
Cc1[nH]c(C)c(-c2ccc(Oc3ccc(OC(F)(F)F)cc3)cc2)c(=O)c1Cl,42,8,2,8000,3 days,190,–,–,–,–
Cl.O=C(CCCC(=O)O[C@H](c1cc(C(F)(F)F)nc2c(C(F)(F)F)cccc12)[C@@H]1CCCCN1)OC1=C([C@H]2CC[C@H](c3ccc(Cl)cc3)CC2)C(=O)c2ccccc2C1=O,1.1,–,–,5000,–,4545,14,0,–,–
O=C(CCCCCCC(=O)Oc1cc(Cl)ccc1Oc1ccc(Cl)cc1Cl)OC1=C([C@H]2CC[C@H](c3ccc(Cl)cc3)CC2)C(=O)c2ccccc2C1=O,0.6,12,9,6000,4 days,10000,–,–,10,–
Cc1nc(C)c(-c2ccc(Oc3ccc(OC(F)(F)F)cc3)cc2)c(OC(=O)CCCCCCC(=O)Oc2cc(Cl)ccc2Oc2ccc(Cl)cc2Cl)c1Cl,169,4,3,> 120000,0.6 days,>710,–,–,–,Time (Plasmodium falciparum [10]): 3 days; Time (Plasmodium falciparum [11]): 2 days; Time (Plasmodium falciparum [12]): 1 days
Cl.O=C(CCC(=O)O[C@H](c1cc(C(F)(F)F)nc2c(C(F)(F)F)cccc12)[C@@H]1CCCCN1)OC1=C([C@H]2CC[C@H](c3ccc(Cl)cc3)CC2)C(=O)c2ccccc2C1=O,0.6,–,–,4000,–,6660,14,0,–,–
"O[C@@H](c1cc(C(F)(F)F)nc2c(C(F)(F)F)cccc12)[C@H]1CCCCN1 [(S,R)-MEFLOQUINE]",87,–,–,21000,–,241,>30,–,–,–
C[C@@H]1CC[C@H]2[C@@H](C)C(=O)O[C@@H]3O[C@@]4(C)CC[C@@H]1[C@]32OO4 [ARTEMISININ],18,–,–,–,–,–,–,–,–,Time (Plasmodium falciparum [13]): 22 days; Time (Plasmodium falciparum [14]): 9 days; Time (Plasmodium falciparum [15]): 12.5 days
O=C1C(O)=C([C@H]2CC[C@H](c3ccc(Cl)cc3)CC2)C(=O)c2ccccc21 [ATOVAQUONE],2.1,23,21,500,<=1 day,257,14,3,18,Time (Plasmodium falciparum [16]): 11 days
CCN(CC)CCCC(C)Nc1ccnc2cc(Cl)ccc12 (stereo unspecified) [CHLOROQUINE],–,–,–,–,–,–,–,–,–,Time (Plasmodium falciparum [17]): 8 days
Oc1cc(Cl)ccc1Oc1ccc(Cl)cc1Cl [TRICLOSAN],–,6,5,25000,–,5,–,–,7,–

# Reference: ChEMBL document CHEMBL4732239, “Novel molecule combinations and corresponding hybrids targeting artemisinin-resistant Plasmodium falciparum parasites” (Bioorg Med Chem Lett, 2021)
